{
  "source": "paper PMC10117764",
  "about": "“The roles of serine hydrolases and serum albumin in alisol B 23-acetate hydrolysis in humans” (Frontiers in Pharmacology, 2023)",
  "key": {"[1]": {"assay": "Hydrolytic half-life of AB23A in human intestine microsomes", "type": "in vitro ADME", "details": "human intestine microsomes (HIMs), HIMs 0.1 mg/mL, PBS pH 7.4, read-out: t1/2 (hydrolytic/metabolic half-life)", "procedure": "(§1) The hydrolytic half-lives (t1/2) of AB23A in human plasma and different human tissue preparations were carried out according to the procedure of in vitro metabolic stability studies ([Ge et al., 2013]). The incubation mixture (1,000 μL) consisted of PBS (pH 7.4), enzyme sources (HLMs/HIMs/human plasma) and AB23A. 25% diluted human plasma was used, the protein concentrations of other tissue microsomes were 0.1 mg/mL. The 100 μL incubation mixture was moved to another containing ice-cold acetonitrile tube at different time points (0, 5, 15, 30, 45, 60, 90, 120 min). All samples were centrifuged for 30 min at 20,000 g 4°C and took the supernatants for LC-UV analysis.\n(§2) The incubation conditions were as follows: the classic incubation system included 100 mM potassium phosphate buffer (PBS, pH 7.4), enzyme sources, and AB23A. In all incubations, PBS and enzyme sources were pre-incubation at 37 °C for 3 min and the reaction was started by adding AB23A (the organic solvent content at most 1%). After reacting 1 h, ice-cold acetonitrile was added to terminate the reaction and precipitate proteins. The samples were centrifuged for 30 min at 20000 × g, 4 °C, and the supernatants were taken for further LC-UV analysis."}, "[2]": {"assay": "Hydrolytic half-life of AB23A in human plasma", "type": "in vitro ADME", "details": "human plasma (25% diluted); 25% dilution human plasma, PBS pH 7.4; read-out: t1/2 (hydrolytic/metabolic half-life)", "procedure": "as §1, §2"}, "hCES1A": {"target": "T1, hCES1A (Homo sapiens, UniProt P23141)", "T1 construct": "10xHis; made in house; host or cells: HEK293-F cells, pTT5 vector, purified from conditioned medium", "T1 sequence (P23141 18-563)": "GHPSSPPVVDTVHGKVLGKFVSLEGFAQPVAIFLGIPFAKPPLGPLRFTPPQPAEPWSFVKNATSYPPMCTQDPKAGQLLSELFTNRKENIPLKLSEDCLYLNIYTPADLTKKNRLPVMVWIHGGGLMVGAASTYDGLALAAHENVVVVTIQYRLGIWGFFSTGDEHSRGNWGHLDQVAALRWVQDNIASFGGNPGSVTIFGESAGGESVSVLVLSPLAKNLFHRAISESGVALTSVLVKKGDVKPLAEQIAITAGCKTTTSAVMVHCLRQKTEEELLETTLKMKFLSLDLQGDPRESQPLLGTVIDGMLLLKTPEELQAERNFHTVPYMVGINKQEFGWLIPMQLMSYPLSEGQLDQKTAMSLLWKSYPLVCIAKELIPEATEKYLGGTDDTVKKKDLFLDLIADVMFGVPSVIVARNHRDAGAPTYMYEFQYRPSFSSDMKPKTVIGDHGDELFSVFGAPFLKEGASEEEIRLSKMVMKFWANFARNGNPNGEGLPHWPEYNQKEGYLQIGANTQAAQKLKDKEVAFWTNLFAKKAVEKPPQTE", "assay": "Kinetic analysis of AB23A hydrolysis in hCES1A", "type": "in vitro ADME", "details": "1 h incubation", "procedure": "(§3) The enzymatic kinetics of AB23A hydrolysis in different tissue preparations (HLMs, HIMs, human plasma) and human recombinant enzymes (hCES1A, hCES2A, hSA, hBchE) were analyzed. The incubation system (200 μL) consisted of PBS, each tested enzyme, and AB23A (ranging from 0 to 1,000 μM). After incubating for 1 h, the supernatants were then used for LC-UV analysis. The kinetic parameters of AB23A hydrolysis were fitted by the following Michaelis−Menten Eq. 1 ([Zhang et al., 2022]). V=(Vmax×[S])⁄(Km+[S]) (1) Here, K m is the Michaelis constant of AB23A hydrolysis, V max is the maximum velocity of AB23A hydrolysis, V max /K m is used to calculate the intrinsic clearance (CL int )."}, "hSA [3]": {"target": "T2, hSA (Homo sapiens, UniProt P02768)", "T2 construct": "purchased Sigma-Aldrich Lot#SLCC9268", "T2 sequence (P02768 25-609)": "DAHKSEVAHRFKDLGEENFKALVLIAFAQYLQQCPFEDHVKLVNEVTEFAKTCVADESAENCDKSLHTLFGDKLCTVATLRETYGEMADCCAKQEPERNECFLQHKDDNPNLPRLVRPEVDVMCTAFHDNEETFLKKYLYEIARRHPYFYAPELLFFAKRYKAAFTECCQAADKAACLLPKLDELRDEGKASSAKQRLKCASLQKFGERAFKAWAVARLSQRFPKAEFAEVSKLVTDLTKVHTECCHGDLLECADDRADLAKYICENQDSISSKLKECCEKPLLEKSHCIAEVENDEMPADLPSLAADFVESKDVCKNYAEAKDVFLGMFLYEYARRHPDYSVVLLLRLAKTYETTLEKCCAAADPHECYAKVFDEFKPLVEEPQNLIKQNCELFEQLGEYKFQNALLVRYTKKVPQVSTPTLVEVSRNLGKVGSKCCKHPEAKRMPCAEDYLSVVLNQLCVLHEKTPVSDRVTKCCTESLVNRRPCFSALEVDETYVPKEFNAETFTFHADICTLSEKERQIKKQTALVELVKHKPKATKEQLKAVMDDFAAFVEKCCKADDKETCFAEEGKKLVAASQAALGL", "assay": "Kinetic analysis of AB23A hydrolysis in hSA", "type": "in vitro ADME", "details": "1 h incubation", "procedure": "as §3"}, "[4]": {"assay": "Kinetic analysis of AB23A hydrolysis in HIMs", "type": "in vitro ADME, human", "procedure": "as §3"}, "hBchE": {"target": "T3, hBchE (Homo sapiens, UniProt P06276)", "T3 construct": "purchased Sigma-Aldrich Lot SLCG5158", "T3 sequence (P06276 29-602)": "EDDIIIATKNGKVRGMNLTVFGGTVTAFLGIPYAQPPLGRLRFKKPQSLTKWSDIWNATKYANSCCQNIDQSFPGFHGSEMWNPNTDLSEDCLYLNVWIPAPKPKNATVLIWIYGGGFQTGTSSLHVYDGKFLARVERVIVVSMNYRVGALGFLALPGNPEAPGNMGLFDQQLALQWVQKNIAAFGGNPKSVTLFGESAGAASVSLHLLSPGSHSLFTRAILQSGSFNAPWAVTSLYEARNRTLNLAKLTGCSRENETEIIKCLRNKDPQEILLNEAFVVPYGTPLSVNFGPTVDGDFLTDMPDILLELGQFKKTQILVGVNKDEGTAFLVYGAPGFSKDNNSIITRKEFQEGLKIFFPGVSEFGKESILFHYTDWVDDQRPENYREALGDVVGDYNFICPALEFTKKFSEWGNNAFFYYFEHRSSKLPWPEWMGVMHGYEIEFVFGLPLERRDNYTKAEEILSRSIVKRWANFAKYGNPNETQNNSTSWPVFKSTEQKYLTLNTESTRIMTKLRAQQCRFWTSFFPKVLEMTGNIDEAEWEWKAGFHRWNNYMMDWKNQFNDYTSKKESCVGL", "assay": "Reaction phenotyping assay of AB23A hydrolysis, hBchE", "type": "in vitro ADME", "details": "hBchE 5 μg/mL, AB23A 20 μM, 60 min, pH 7.4 at 37°C", "procedure": "(§4) The hydrolytic rates of AB23A in different human recombinant enzymes (hCES1A, hCES2A, hPL, hIAH1, hNotum, hAchE, hBchE, hSA, hCTSA, hMAGL) were assayed. The incubation system included PBS, each tested enzyme (5 μg/mL, final concentration), and AB23A (20 μM). After incubation for 1 h at 37°C, ice-cold acetonitrile was added to terminate the reaction and precipitate proteins. The supernatants by centrifuging were used to quantify the formation rates of AB by LC-UV analysis. The detection wavelength of AB was 196 nm."}, "hSA [5]": {"target": "T2, hSA", "assay": "Reaction phenotyping assay of AB23A hydrolysis, hSA", "type": "in vitro ADME", "details": "hSA 500 μg/mL (Figure 3), AB23A 20 μM, 60 min, pH 7.4 at 37°C", "procedure": "as §4, with “The incubation system included PBS, each tested enzyme (5 μg/mL, final concentration), and AB23A (20 μM).” left out"}},
  "note": "Where “and” joins values, the source holds several entries; their conditions need not be identical. Equal entries are not always repeated.",
  "data": [
    {"smiles": "CC(=O)O[C@H](C[C@@H](C)C1=C2C[C@H](O)C3[C@@]4(C)CCC(=O)C(C)(C)C4CC[C@]3(C)[C@@]2(C)CC1)[C@H]1OC1(C)C", "note": "(some centres unmarked) [AB23A, Alisol B 23-acetate]", "values": [
      {"measurement": "half-life", "setting": "[1]", "value": "1.1333 ± 0.000167", "unit": "h"},
      {"measurement": "half-life", "setting": "[2]", "value": "1.916 ± 0.00333", "unit": "h"},
      {"measurement": "K m of AB23A hydrolysis", "setting": "hCES1A", "value": "190.80 ± 31.41", "unit": "µM"},
      {"measurement": "K m of AB23A hydrolysis", "setting": "hSA [3]", "value": "261.20 ± 18.69", "unit": "µM"},
      {"measurement": "K m of AB23A hydrolysis", "setting": "[4]", "value": "164.00 ± 18.63", "unit": "µM"},
      {"measurement": "V max of AB23A hydrolysis", "setting": "[4]", "value": "2.93 ± 0.10 nmol/min/mg protein and 2.93 ± 0.10 ^a nmol/min/mg protein"},
      {"measurement": "Hydrolytic rate (formation of AB) in reaction phenotyping", "setting": "hBchE", "value": "faster hydrolytic rate"},
      {"measurement": "Hydrolytic rate (formation of AB) in reaction phenotyping", "setting": "hSA [5]", "value": "also catalyzed this hydrolytic reaction"}
    ]}
  ]
}
